The source of these data is paper PMC4460250, “Systems Pharmacology Dissecting Holistic Medicine for Treatment of Complex Diseases: An Example Using Cardiocerebrovascular Diseases Treated by TCM” (Evidence-based Complementary and Alternative Medicine : eCAM, 2015).

For series [1] the following is noted: in vivo; cited from earlier work.
For series [2] the following is noted: in vivo.

With `CCN(C)C(=O)Oc1cccc([C@H](C)N(C)C)c1` [Rivastigmine], the “HIA(Human Intestinal Absorption)” value in series [1] is on record as 0.98. In addition, the “Class(High: HIA value ≥0.7; Low: HIA value < 0.7)” value in series [2] is on record as “High (key: High: HIA value ≥0.7; Low: HIA value < 0.7)”.
As to `C#CCN(C)[C@H](C)Cc1ccccc1` [Selegiline(R)], the “HIA(Human Intestinal Absorption)” value in series [1] is recorded as 1. Besides, in series [2], the “Class(High: HIA value ≥0.7; Low: HIA value < 0.7)” value is reported as “High (key: High: HIA value ≥0.7; Low: HIA value < 0.7)”.
For the compound `CC(C)C[C@@H](N(C)C)C1(c2ccc(Cl)cc2)CCC1` [Sibutramine(R)], in series [1], the “HIA(Human Intestinal Absorption)” value is reported as 0.77. Further, in series [2], the “Class(High: HIA value ≥0.7; Low: HIA value < 0.7)” value is listed as “High (key: High: HIA value ≥0.7; Low: HIA value < 0.7)”.
On to `CC(C)C[C@H](N(C)C)C1(c2ccc(Cl)cc2)CCC1` [Sibutramine(S)], for which the “HIA(Human Intestinal Absorption)” value in series [1] was 0.77. Besides, in series [2], the “Class(High: HIA value ≥0.7; Low: HIA value < 0.7)” value is reported as “High (key: High: HIA value ≥0.7; Low: HIA value < 0.7)”.
As to `CC(C)NC[C@H](O)c1ccc(NS(C)(=O)=O)cc1` [Sotalol(R)], the “HIA(Human Intestinal Absorption)” value in series [1] is 0.95. Moreover, the “Class(High: HIA value ≥0.7; Low: HIA value < 0.7)” value in series [2] is “High (key: High: HIA value ≥0.7; Low: HIA value < 0.7)”.
In the case of `CC(C)NC[C@@H](O)c1ccc(NS(C)(=O)=O)cc1` [Sotalol(S)], the “HIA(Human Intestinal Absorption)” value in series [1] is 0.95. In addition, in series [2], the “Class(High: HIA value ≥0.7; Low: HIA value < 0.7)” value is “High (key: High: HIA value ≥0.7; Low: HIA value < 0.7)”.
On to `Cc1cc(C)nc(NS(=O)(=O)c2ccc(N)cc2)n1` [Sulfamethazine], for which, in series [1], the “HIA(Human Intestinal Absorption)” value is on record as 0.95. Also, in series [2], the “Class(High: HIA value ≥0.7; Low: HIA value < 0.7)” value is given as “High (key: High: HIA value ≥0.7; Low: HIA value < 0.7)”.
As for `CCN1CCCC1CNC(=O)c1cc(S(N)(=O)=O)ccc1OC` (centres unmarked) [Sulpiride], the “HIA(Human Intestinal Absorption)” value in series [1] is listed as 0.44. Also, the “Class(High: HIA value ≥0.7; Low: HIA value < 0.7)” value in series [2] was “Low (key: High: HIA value ≥0.7; Low: HIA value < 0.7)”.
In the case of `CCN1CCC[C@@H]1CNC(=O)c1cc(S(=O)(=O)CC)ccc1OC` [Sultopride(R)], the “HIA(Human Intestinal Absorption)” value in series [1] is 0.89. Also, in series [2], the “Class(High: HIA value ≥0.7; Low: HIA value < 0.7)” value is reported as “High (key: High: HIA value ≥0.7; Low: HIA value < 0.7)”.
Regarding `CCN1CCC[C@H]1CNC(=O)c1cc(S(=O)(=O)CC)ccc1OC` [Sultopride(S)], in series [1], the “HIA(Human Intestinal Absorption)” value is 0.89. Besides, the “Class(High: HIA value ≥0.7; Low: HIA value < 0.7)” value in series [2] was “High (key: High: HIA value ≥0.7; Low: HIA value < 0.7)”.
For the compound `COc1cc2nc(N3CCN(C(=O)[C@H]4CCCO4)CC3)nc(N)c2cc1OC` [Terazosin(R)], in series [1], the “HIA(Human Intestinal Absorption)” value is 0.91. In addition, the “Class(High: HIA value ≥0.7; Low: HIA value < 0.7)” value in series [2] is listed as “High (key: High: HIA value ≥0.7; Low: HIA value < 0.7)”.
Take `COc1cc2nc(N3CCN(C(=O)[C@@H]4CCCO4)CC3)nc(N)c2cc1OC` [Terazosin(S)]: the “HIA(Human Intestinal Absorption)” value in series [1] is on record as 0.91. In addition, in series [2], the “Class(High: HIA value ≥0.7; Low: HIA value < 0.7)” value is “High (key: High: HIA value ≥0.7; Low: HIA value < 0.7)”.
As for `CC(C)(C)NC[C@H](O)c1cc(O)cc(O)c1` [Terbutaline(R)], the “HIA(Human Intestinal Absorption)” value in series [1] is recorded as 0.63. In addition, the “Class(High: HIA value ≥0.7; Low: HIA value < 0.7)” value in series [2] is “Low (key: High: HIA value ≥0.7; Low: HIA value < 0.7)”.
As to `CC(C)(C)NC[C@@H](O)c1cc(O)cc(O)c1` [Terbutaline(S)], the “HIA(Human Intestinal Absorption)” value in series [1] is reported as 0.63. Also, in series [2], the “Class(High: HIA value ≥0.7; Low: HIA value < 0.7)” value is listed as “Low (key: High: HIA value ≥0.7; Low: HIA value < 0.7)”.
With `CC(C)(C)c1ccc([C@H](O)CCCN2CCC(C(O)(c3ccccc3)c3ccccc3)CC2)cc1` [Terfenadine(R)], the “HIA(Human Intestinal Absorption)” value in series [1] is given as 1. Moreover, the “Class(High: HIA value ≥0.7; Low: HIA value < 0.7)” value in series [2] is “High (key: High: HIA value ≥0.7; Low: HIA value < 0.7)”.
For the compound `CC(C)(C)c1ccc([C@@H](O)CCCN2CCC(C(O)(c3ccccc3)c3ccccc3)CC2)cc1` [Terfenadine(S)], the “HIA(Human Intestinal Absorption)” value in series [1] is 1. The “Class(High: HIA value ≥0.7; Low: HIA value < 0.7)” value in series [2] is “High (key: High: HIA value ≥0.7; Low: HIA value < 0.7)”.
For the compound `C[C@]12CC[C@H]3[C@@H](CCC4=CC(=O)CC[C@@]43C)[C@@H]1CC[C@@H]2O` [Testosterone], in series [1], the “HIA(Human Intestinal Absorption)” value is reported as 1. Also, in series [2], the “Class(High: HIA value ≥0.7; Low: HIA value < 0.7)” value is reported as “High (key: High: HIA value ≥0.7; Low: HIA value < 0.7)”.
As to `CCCCCc1cc(O)c2c(c1)OC(C)(C)[C@@H]1CCC(C)=C[C@@H]21` [Tetrahydrocannabinol], in series [1], the “HIA(Human Intestinal Absorption)” value is recorded as 0.93. In addition, the “Class(High: HIA value ≥0.7; Low: HIA value < 0.7)” value in series [2] is “High (key: High: HIA value ≥0.7; Low: HIA value < 0.7)”.
Consider `CCOC(=O)C1(c2ccccc2)CCC=CC1N(C)C` (centres unmarked) [Tilidine], for which the “HIA(Human Intestinal Absorption)” value in series [1] was 1. Moreover, the “Class(High: HIA value ≥0.7; Low: HIA value < 0.7)” value in series [2] is reported as “High (key: High: HIA value ≥0.7; Low: HIA value < 0.7)”.
On to `CC(C)(C)NC[C@H](O)COc1nsnc1N1CCOCC1` [Timolol(S)], for which the “HIA(Human Intestinal Absorption)” value in series [1] is given as 0.95. Further, the “Class(High: HIA value ≥0.7; Low: HIA value < 0.7)” value in series [2] is recorded as “High (key: High: HIA value ≥0.7; Low: HIA value < 0.7)”.
Consider `Cc1cccc(C)c1NC(=O)[C@@H](C)N` [Tocainide(R)], for which, in series [1], the “HIA(Human Intestinal Absorption)” value was 1. Moreover, the “Class(High: HIA value ≥0.7; Low: HIA value < 0.7)” value in series [2] is “High (key: High: HIA value ≥0.7; Low: HIA value < 0.7)”.
For the compound `Cc1cccc(C)c1NC(=O)[C@H](C)N` [Tocainide(S)], the “HIA(Human Intestinal Absorption)” value in series [1] is given as 1. In addition, the “Class(High: HIA value ≥0.7; Low: HIA value < 0.7)” value in series [2] is “High (key: High: HIA value ≥0.7; Low: HIA value < 0.7)”.
For `COc1cccc(C2(O)CCCCC2CN(C)C)c1` (centres unmarked) [Tramadol], the “HIA(Human Intestinal Absorption)” value in series [1] was 0.9. Further, the “Class(High: HIA value ≥0.7; Low: HIA value < 0.7)” value in series [2] was “High (key: High: HIA value ≥0.7; Low: HIA value < 0.7)”.
`O[C@@](CCN1CCCCC1)(c1ccccc1)C1CCCCC1` [Trihexyphenidyl(R)]: in series [1], the “HIA(Human Intestinal Absorption)” value is on record as 1. The “Class(High: HIA value ≥0.7; Low: HIA value < 0.7)” value in series [2] is recorded as “High (key: High: HIA value ≥0.7; Low: HIA value < 0.7)”.
As for `O[C@](CCN1CCCCC1)(c1ccccc1)C1CCCCC1` [Trihexyphenidyl(S)], the “HIA(Human Intestinal Absorption)” value in series [1] is 1. Moreover, the “Class(High: HIA value ≥0.7; Low: HIA value < 0.7)” value in series [2] was “High (key: High: HIA value ≥0.7; Low: HIA value < 0.7)”.
Turning to `C[C@H](CN(C)C)CN1c2ccccc2Sc2ccccc21` [Trimeprazine(R)], in series [1], the “HIA(Human Intestinal Absorption)” value is recorded as 0.8. Also, the “Class(High: HIA value ≥0.7; Low: HIA value < 0.7)” value in series [2] is reported as “High (key: High: HIA value ≥0.7; Low: HIA value < 0.7)”.
Consider `C[C@@H](CN(C)C)CN1c2ccccc2Sc2ccccc21` [Trimeprazine(S)], for which the “HIA(Human Intestinal Absorption)” value in series [1] is listed as 0.8. Moreover, the “Class(High: HIA value ≥0.7; Low: HIA value < 0.7)” value in series [2] is “High (key: High: HIA value ≥0.7; Low: HIA value < 0.7)”.
With `C[C@H](CN(C)C)CN1c2ccccc2CCc2ccccc21` [Trimipramine(R)], in series [1], the “HIA(Human Intestinal Absorption)” value is given as 0.8. Further, in series [2], the “Class(High: HIA value ≥0.7; Low: HIA value < 0.7)” value is listed as “High (key: High: HIA value ≥0.7; Low: HIA value < 0.7)”.
Regarding `C[C@@H](CN(C)C)CN1c2ccccc2CCc2ccccc21` [Trimipramine(S)], in series [1], the “HIA(Human Intestinal Absorption)” value is on record as 0.8. For the same compound, the “Class(High: HIA value ≥0.7; Low: HIA value < 0.7)” value in series [2] is “High (key: High: HIA value ≥0.7; Low: HIA value < 0.7)”.
Consider `O=C(O[C@H]1C[C@H]2CC[C@@H](C1)[N+]21CCCC1)C(O)(c1ccccc1)c1ccccc1` [Trospium_chloride], for which, in series [1], the “HIA(Human Intestinal Absorption)” value is 0.1. The “Class(High: HIA value ≥0.7; Low: HIA value < 0.7)” value in series [2] is reported as “Low (key: High: HIA value ≥0.7; Low: HIA value < 0.7)”.
For the compound `CCCCC(=O)N(Cc1ccc(-c2ccccc2-c2nnn[nH]2)cc1)[C@H](C(=O)O)C(C)C` [Valsartan(S)], in series [1], the “HIA(Human Intestinal Absorption)” value was 0.55. Moreover, the “Class(High: HIA value ≥0.7; Low: HIA value < 0.7)” value in series [2] is on record as “Low (key: High: HIA value ≥0.7; Low: HIA value < 0.7)”.
